Assay results published in PMC6748948, “A Bone Morphogenetic Protein (BMP)-derived Peptide Based on the Type I Receptor-binding Site Modifies Cell-type Dependent BMP Signalling” (Scientific Reports, 2019).
Peptide text beside a SMILES is read from it.

Legend:
[1] = system: BMP4 binding to ALK3-Fc; assay: SPR, BMP4 binding to ALK3-Fc in the presence of peptide; conditions: BMP4 50 nM, peptide 0.25-1 mM, compared with P3
Experimental: Peptide-receptor binding assays were performed using Biacore T200 biosensor (Biacore/GE Healthcare). ALK1-Fc, ALK2-Fc or ALK3-Fc was covalently linked onto individual flow cells of a research grade CM5 chip (GE Healthcare) via amine-coupling using standard manufacturer’s protocol. One flow cell was used as a control for subtracting non-specific binding. Peptides were injected over the immobilised chip at various concentrations up to 1 mM at a flow rate of 30 μl/min for 3 min at 37 °C in running buffer containing 0.01 M HEPES, 0.5 M NaCl, 3 mM EDTA and 0.005% v/v Surfactant P20 (pH 7.4). At the end of each peptide injection, the chip surface was regenerated with 4 M Guanidine hydrochloride (GnHCl). The biotinylated peptide P3* was immobilised onto a streptavidin (SA) chip (GE Healthcare) following the manufacturer’s protocol. Binding assays were carried out using a similar protocol as described above, only with a different injection time of 4 min. For BMP9-ALK1 and BMP4-ALK3 binding assays, BMP9 and BMP4 were added at 50 nM alone or in the presence of peptide P3 or P3r at 0.25 mM, 0.5 mM or 1 mM. Each cycle was set with a dissociation time of 12 min. Duplicated injections were performed for each ligand along with buffer blanks. The equilibrium dissociation constant KD was determined by fitting the data to a steady-state model using BIAevaluation software (GE Healthcare). […]

[2] = system: Smad1/5 phosphorylation in hPAECs; assay: BMP9-induced Smad1/5 phosphorylation assay in hPAECs (immunoblot); type: cell-based, human; conditions: BMP9 0.03 ng/ml (1.24 pM GFD dimer), peptide 250 μM (P3 also dose-dependent), 40 min, serum-starved, immunoblot densitometry
Experimental: Endothelial cells were seeded in 6-cm dishes at 9 × 10^5 cells/dish and cultured for 24 hours (h) to full confluence, and then serum-starved for 16 h before treatments with control buffer, BMP9 alone, BMP9 with peptides, or peptides alone. After 40 min, cells were washed once with PBS and snap-frozen on dry ice to harvest. Cells were then lysed with buffer containing 125 mM Tris-HCl (pH 6.8), 2% SDS and 10% glycerol. The total protein concentration was determined using the DC^TM protein assay (Bio-Rad), of which 30 μg of total cell proteins was fractionated on 12% SDS-PAGE under non-reducing condition. The phosphorylation of Smad1/5 and total Smad1 were detected by anti-phospho-Smad1/5 antibody (9516 S) and anti-Smad 1 antibody (9743 S). The intensity of pSmad1/5 bands were quantified using ImageJ software, using β-actin or α-tubulin as the loading control.

[3] = system: Smad1/5 phosphorylation in HMEC-1; assay: BMP4-induced Smad1/5 phosphorylation in HMEC-1; type: cell-based, human; conditions: peptide 250 μM, BMP4 0.3 ng/ml (11.54 pM GFD dimer), N = 3
[4] = system: ALP activity in C2C12 cells; assay: BMP9-induced ALP activity in C2C12 cells; type: cell-based, mouse; conditions: peptide 160 μM with BMP9, 65 h, DMEM 0.25% FBS, three independent experiments in duplicate
Experimental: C2C12 mouse myoblasts were seeded in 24-well plates at 25,000 cells/well with antibiotics for 48 h. Treatments were performed in DMEM, 0.25% FBS with antibiotics in a final volume of 1.1 ml for 65 h. Cells were harvested and lysed in 1% Triton-X100 in PBS and the extracted total protein was quantified by Bio-Rad DC^TM protein assay (Bio-Rad). ALP activity was determined by incubating 15 μg of the total protein with ALP substrate p-nitrophenyl phosphate (PNPP, Sigma-Aldrich) and absorbance of the product p-nitrophenol (PNP) was recorded at 405 nm in 5 min intervals for 1 h. The relative ALP activity was expressed as fold change to the BMP9-treated control with data presented as means ± S.E.

[5] = molecular target: ALK3; conditions: ALK3 expressed from different host cells; read-out: KD values of BMP4 for ALK3; cited from earlier work
Experimental: (§1) It is intriguing why the same peptide could promote BMP9 signalling in PAECs while inhibit BMP4 signalling in HMECs, an effect which is also recapitulated in the SPR binding studies (Fig. 4A–D, Supplemental Fig. 4). Whilst it is difficult to provide a direct structural explanation, this may relate to the difference in affinities and concentrations of the receptors for the ligands. ALK1 binds BMP9 with affinity of around 0.03 nM[8]. The reported KD values of BMP4 for ALK3 (with ALK3 expressed from different host cells) are 1–10 nM[30],[31]. It is plausible that the inhibitory effect of P3 on BM ...

[6] = molecular target: ALK1; conditions: read-out: affinity of ALK1 for BMP9; cited from earlier work
Experimental: as §1

For `CC[C@H](C)[C@H](NC(=O)[C@H](CC(=O)O)NC(=O)[C@@H](NC(=O)[C@@H](NC(=O)[C@H](CCCCN)NC(=O)[C@H](Cc1ccccc1)NC(=O)[C@@H](NC(=O)[C@H](CCCCN)NC(=O)[C@H](CC(=O)O)NC(=O)[C@H](CC(C)C)NC(=O)[C@H](CCC(N)=O)NC(=O)[C@H](C)NC(=O)[C@@H]1CCCN1C(=O)[C@@H](NC(=O)[C@@H](NC(=O)[C@H](CS)NC(=O)[C@@H](NC(=O)[C@@H]1CCCN1)[C@@H](C)O)[C@@H](C)O)[C@@H](C)O)C(C)C)[C@@H](C)O)[C@@H](C)O)C(=O)N[C@@H](Cc1c[nH]cn1)C(=O)N[C@@H](Cc1ccccc1)C(=O)N[C@@H](CS)C(=O)N[C@@H](Cc1c[nH]cn1)C(=O)N[C@@H](CC(C)C)C(=O)O` [Peptide P3r] (H-PTCTTPAQLDKVFKTTDIHFCHL-OH; N-terminus and C-terminus assumed), the “competing BMP4 binding to ALK3 (in words)” value [1] was “much less effective”, the “effect on BMP9-induced Smad1/5 phosphorylation in hPAECs” value [2] was “significantly enhanced” and the “effect on BMP4-induced Smad1/5 phosphorylation in HMEC-1” value [3] was “failed to inhibit”. For the same compound, the “effect on BMP9-induced ALP activity in C2C12 cells” value [4] was “No difference”.

In the case of “BMP4: bone morphogenetic protein 4, growth factor”, the Kd [5] is listed as 1 to 10 nM.

For “BMP9: bone morphogenetic protein 9, growth factor”, the Kd [6] is given as ~0.03 nM.
